Here are results for 20 compounds from patent publication US8211939B2, “Isosorbide nitrates” (Lacer, S.A., priority 2008, dated 2012).

Like-named read-outs stand apart in the source and are kept apart here.

The subject of test [1] is coronary angina caused by coronary obstruction (35% ferric chloride patch on left anterior descending coronary artery). The experiment in a line: Anti-anginal activity, ferric chloride-induced coronary angina (ECG S-wave). The format is in vivo, Male Wistar rats. The conditions noted are these: Rattus norvegicus, po, rat, vs untreated control, read-out: Antianginal activity (% inhibition of S-wave decrease); for inhibition in vivo at 90 µmol/kg: 90 μmol/kg p.o. Here is the method:
Anti-Anginal Activity Assessment
Male Wistar rats weighing 250-300 g were used after an acclimatization period of five days, and animals were divided in groups of 8 for each treatment. In all experiments, rats were treated with 90 μmol/kg of each product by oral gavage using an administration volume of 10 ml/kg unless otherwise stated. The vehicle used to dissolve the products consisted of 1% Cremophor EL 27963, 1% Tween 80 and 0.5% Methocel E-15 in distilled water. […]
The procedure used to test the anti-anginal activity was that described by Hirata Y et al (Hirata Y, et al. Journal of Cardiovascular Pharmacology 1998, 31: 322-326).
After treatment, animals were anaesthetized with pentobarbital and electrodes were set for standard limb lead II electrocardiogram recording (Grass polygraph model 7, amplifier 7DA and pre-amplifier 7P1).
To induce coronary angina caused by coronary obstruction, a 35%-ferric chloride embedded mini patch was applied onto the left anterior descending coronary artery just below the left auricle. In all groups, after application of the patch, the ECG was recorded during 10 minutes. The shortening of the S-wave amplitude was measured on the recorded ECG. Data were collected with a Biopac system model MP100 connected to a Pentium PC. Results were expressed as % inhibition of S-wave decrease vs the untreated control.

In test [2] the test system is thrombus formation in the carotid artery (70% FeCl3 patch). The experiment in a line: Anti-thrombotic activity, FeCl3-induced carotid artery thrombosis. The format is in vivo, Male Wistar rats. The conditions noted are these: 90 μmol/kg p.o., % animals protected; for responders at 90 µmol/kg: Rattus norvegicus, po, read-out: Antithrombotic activity (% protection); for Antithrombotic activity (% protection): rat. The procedure:
Anti-Thrombotic Activity Assessment Experimental Procedure Male Wistar rats weighing 250-300 g were used after an acclimatization period of five days, and animals were divided in groups of 8 animals each for the treatments. […] The vehicle used to dissolve the products consisted of 1% Cremophor EL 27963, 1% Tween 80 and 0.5% Methocel E-15 in distilled water. After a fasting period of 8 hours with free access to drinking water each product was given by gavage 1 hour before induction of thrombosis. Thrombus formation was induced using a patch embedded with 70% FeCl3 solution applied onto the carotid artery using the same procedure described by Feuerstein G Z et al and later modified by Kurz et al (Feuerstein G Z, et al Artherioscler. Thromb. Vasc. Biol. 1999, 19: 2554-2562, Kurz K D, et al Thromb. Res. 1990, 60:269-280). Anti-thrombotic efficacy was evaluated at different times after dosage. Rats were anesthetized with sodium pentobarbital and then placed on a dorsal position over a thermal blanket laid on a surgical board and heated at 37° C. The left carotid artery was dissected and an electromagnetic blood flow probe was placed on the artery to measure blood flow. After application of the thrombotic stimuli, blood flow was monitored for the following 30 minutes. The vessel was considered occluded by the thrombus when flow reached 0.0 ml/min. Data were analysed by contingency tables using the Graph Pad Prism Program. P values were calculated using Fisher's exact test, values of p<0.05 were considered statistically significant. Results were expressed as % animals protected.

Take `C[S@+]([O-])[C@H]1CO[C@H]2[C@@H]1OC[C@H]2O[N+](=O)[O-]` [Comp 7, (3R,3aS,6S,6aS)-6-((S)-methylsulfinyl)hexahydrofuro[3,2-b]furan-3-yl nitrate, reference compound]: in test [1] (1 h, 450 μmol/kg p.o., 1 h), the inhibition in vivo at 450 µmol/kg was determined as 73%. In addition, the responders at 90 µmol/kg amounted to 0% in test [2] (0.5 h, ½ h after dosage); 0% in test [2] (1 h, 1 h after dosage); 0% in test [2] (2 h, 2 h after dosage); 0% in test [2] (4 h, 4 h after dosage).

For the compound `CCS(=O)(=O)[C@H]1CO[C@H]2[C@@H]1OC[C@H]2O[N+](=O)[O-]` [Ej. 7, (3R,3aS,6S,6aS)-6-(ethylsulfonyl)hexahydrofuro[3,2-b]furan-3-yl nitrate], the inhibition in vivo at 90 µmol/kg in test [1] (1 h, 1 h) was determined as 81%; in test [1] (4 h, 4 h), 23%. Also, the responders at 90 µmol/kg in test [2] (0.5 h, ½ h after dosage) was determined as 50%; in test [2] (1 h, 1 h after dosage), 84%; in test [2] (2 h, 2 h after dosage), 32%; in test [2] (4 h, 4 h after dosage) it was 0%.

As for `O=[N+]([O-])O[C@@H]1CO[C@H]2[C@@H]1OC[C@@H]2S(=O)(=O)Cc1ccccc1` [Comp 8, (3R,3aS,6S,6aS)-6-(benzylsulfonyl)hexahydrofuro[3,2-b]furan-3-yl nitrate, reference compound], the responders at 90 µmol/kg in test [2] (1 h, 1 h after dosage) came out at 33%.

As to `O=[N+]([O-])O[C@@H]1CO[C@H]2[C@@H]1OC[C@@H]2SCc1ccccc1` [Comp 2, (3R,3aS,6S,6aS)-6-(benzylthio)hexahydrofuro[3,2-b]furan-3-yl nitrate, reference compound], in test [2] (1 h, 1 h after dosage), the responders at 90 µmol/kg was determined as 33%.

For the compound `CC[S+]([O-])[C@@H]1CO[C@H]2[C@@H]1OC[C@H]2O[N+](=O)[O-]` (single isomer, unassigned) [Ej. 13 isom 1], in test [2] (4 h, 4 h after dosage), the responders at 90 µmol/kg is 16%. Also, in test [2] (1 h after dosage), the “Antithrombotic activity (% protection)” value was determined as 32%.

For `C[S@@+]([O-])[C@H]1CO[C@H]2[C@@H]1OC[C@H]2O[N+](=O)[O-]` [Comp 6, (3R,3aS,6S,6aS)-6-((R)-methylsulfinyl)hexahydrofuro[3,2-b]furan-3-yl nitrate, reference compound], the inhibition in vivo at 90 µmol/kg amounted to 48% in test [1] (1 h, 1 h) and 0% in test [1] (4 h, 4 h). Also, the responders at 90 µmol/kg is 40% in test [2] (0.5 h, ½ h after dosage); 16% in test [2] (1 h, 1 h after dosage); 0% in test [2] (2 h, 2 h after dosage); 0% in test [2] (4 h, 4 h after dosage).

In the case of `CCOC(=O)C[S+]([O-])[C@H]1CO[C@H]2[C@@H]1OC[C@H]2O[N+](=O)[O-]` (stereo partly drawn) [Comp 5, reference compound], the responders at 90 µmol/kg in test [2] (1 h, 1 h after dosage) is 16%; in test [2] (2 h, 2 h after dosage), 0%; in test [2] (4 h, 4 h after dosage) it was 0%.

`C=CCS[C@H]1CO[C@H]2[C@@H]1OC[C@H]2O[N+](=O)[O-]` [Ej. 3, (3R,3aS,6S,6aS)-6-(allylthio)hexahydrofuro[3,2-b]furan-3-yl nitrate]: the responders at 90 µmol/kg in test [2] (1 h, 1 h after dosage) turned out to be 67%.

For the compound `CC[S+]([O-])[C@H]1CO[C@H]2[C@@H]1OC[C@H]2O[N+](=O)[O-]` (stereo partly drawn) [Ej. 4, (3R,3aS,6S,6aS)-6-((R,S)-ethylsulfinyl)hexahydrofuro[3,2-b]-furan-3-yl nitrate], the inhibition in vivo at 90 µmol/kg in test [1] (1 h, 1 h) worked out at 84%; in test [1] (4 h, 4 h) it was 43%. The responders at 90 µmol/kg in test [2] (0.5 h, ½ h after dosage) came out at 32%; in test [2] (1 h, 1 h after dosage) it was 67%; in test [2] (2 h, 2 h after dosage) it was 83%; in test [2] (4 h, 4 h after dosage), 50%.

As to `CC[S+]([O-])[C@@H]1CO[C@H]2[C@@H]1OC[C@H]2O[N+](=O)[O-]` (single isomer, unassigned) [Ej. 13 isom 2], the “Antithrombotic activity (% protection)” value was 83% in test [2] (1 h after dosage) and 16% in test [2] (4 h after dosage).

Consider `CCOC(=O)CS[C@H]1CO[C@H]2[C@@H]1OC[C@H]2O[N+](=O)[O-]` [Comp 3, Ethyl 2-((3S,3aS,6R,6aS)-6-(nitrooxy)hexahydrofuro[3,2-b]furan-3-ylthio)acetate, reference compound], for which the responders at 90 µmol/kg in test [2] (1 h, 1 h after dosage) turned out to be 32%.

Regarding `CCS[C@@H]1CO[C@H]2[C@@H]1OC[C@H]2O[N+](=O)[O-]` [Ej. 11, (3R,3aS,6R,6aS)-6-(ethylthio)hexahydrofuro[3,2-b]furan-3-yl nitrate], the inhibition in vivo at 90 µmol/kg in test [1] (1 h, 1 h) was determined as 41%. For the same compound, the responders at 90 µmol/kg amounted to 66% in test [2] (1 h, 1 h after dosage) and 0% in test [2] (4 h, 4 h after dosage).

`C=CCS(=O)(=O)[C@H]1CO[C@H]2[C@@H]1OC[C@H]2O[N+](=O)[O-]` [Ej. 9, (3R,3aS,6S,6aS)-6-(allylsulfonyl)hexahydrofuro[3,2-b]furan-3-yl nitrate]: the responders at 90 µmol/kg in test [2] (1 h, 1 h after dosage) was determined as 83%; in test [2] (2 h, 2 h after dosage) it was 50%; in test [2] (4 h, 4 h after dosage) it was 0%.

Turning to `O=[N+]([O-])O[C@@H]1CO[C@H]2[C@@H]1OC[C@@H]2[S+]([O-])Cc1ccccc1` (stereo partly drawn) [Comp 4, (3R,3aS,6S,6aS)-6-((R,S)-benzylsulfinyl)hexahydrofuro[3,2-b]furan-3-yl nitrate, reference compound], the responders at 90 µmol/kg amounted to 20% in test [2] (1 h, 1 h after dosage); 0% in test [2] (2 h, 2 h after dosage); 0% in test [2] (4 h, 4 h after dosage).

For `CCCS[C@H]1CO[C@H]2[C@@H]1OC[C@H]2O[N+](=O)[O-]` [Ej. 2, (3R,3aS,6S,6aS)-6-(propylthio)hexahydrofuro[3,2-b]furan-3-yl nitrate], the inhibition in vivo at 90 µmol/kg in test [1] (1 h, 1 h) is 69%; in test [1] (4 h, 4 h), 8%. For the same compound, the responders at 90 µmol/kg in test [2] (1 h, 1 h after dosage) worked out at 67%.

On to `C=CC[S+]([O-])[C@H]1CO[C@H]2[C@@H]1OC[C@H]2O[N+](=O)[O-]` (stereo partly drawn) [Ej. 6, (3R,3aS,6S,6aS)-6-((R,S)-allylsulfinyl)hexahydrofuro[3,2-b]furan-3-yl nitrate], for which the responders at 90 µmol/kg is 67% in test [2] (1 h, 1 h after dosage); 34% in test [2] (2 h, 2 h after dosage); 17% in test [2] (4 h, 4 h after dosage).

Take `CCCCS[C@H]1CO[C@H]2[C@@H]1OC[C@H]2O[N+](=O)[O-]` [Comp 10, (3R,3aS,6S,6aS)-6-(butylthio)hexahydrofuro[3,2-b]furan-3-yl nitrate, reference compound]: in test [2] (1 h, 1 h after dosage), the responders at 90 µmol/kg came out at 40%.

Consider `CCCS(=O)(=O)[C@H]1CO[C@H]2[C@@H]1OC[C@H]2O[N+](=O)[O-]` [Ej. 8, (3R,3aS,6S,6aS)-6-(propylsulfonyl)hexahydrofuro[3,2-b]furan-3-yl nitrate], for which the inhibition in vivo at 90 µmol/kg in test [1] (1 h, 1 h) was found to be 77%; in test [1] (4 h, 4 h) it was 25%. For the same compound, the responders at 90 µmol/kg in test [2] (1 h, 1 h after dosage) amounted to 100%; in test [2] (2 h, 2 h after dosage) it was 50%; in test [2] (4 h, 4 h after dosage) it was 0%.

`CCCC[S+]([O-])[C@H]1CO[C@H]2[C@@H]1OC[C@H]2O[N+](=O)[O-]` (stereo partly drawn) [Comp 11, (3R,3aS,6S,6aS)-6-((R,S)-butylsulfinyl)hexahydrofuro[3,2-b]furan-3-yl nitrate, reference compound]: the responders at 90 µmol/kg in test [2] (1 h, 1 h after dosage) stood at 32%.

Consider `CCCCS(=O)(=O)[C@H]1CO[C@H]2[C@@H]1OC[C@H]2O[N+](=O)[O-]` [Comp 12, (3R,3aS,6S,6aS)-6-(butylsulfonyl)hexahydrofuro[3,2-b]furan-3-yl nitrate, reference compound], for which the responders at 90 µmol/kg in test [2] (1 h, 1 h after dosage) came to 40%.
